Patent US20040220188A1, “Alkylidene pyrazolidinedione derivatives” (priority 2001, published 2004)

Legend:
GLEPP-1 = target: T1, GLEPP-1 (Homo sapiens, UniProt Q16827); test: PTP Enzyme Assay (DiFMUP substrate), GLEPP-1; assay type: biochemical; settings: catalytic core of human recombinant PTP, DiFMUP at Km; read-out: inhibition (IC50) with regard to GLEPP-1
T1 construct: using the catalytic core of a human recombinant PTP, as an enzyme; made in house
T1 sequence (Q16827 938-1195 limits assumed): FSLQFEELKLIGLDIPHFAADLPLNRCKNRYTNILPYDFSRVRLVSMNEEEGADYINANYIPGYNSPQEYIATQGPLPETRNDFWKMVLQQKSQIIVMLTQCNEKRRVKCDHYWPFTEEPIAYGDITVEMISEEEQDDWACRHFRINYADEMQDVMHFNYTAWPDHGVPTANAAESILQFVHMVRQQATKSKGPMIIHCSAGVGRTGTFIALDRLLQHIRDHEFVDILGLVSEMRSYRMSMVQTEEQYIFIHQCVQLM
Description: (§1) (1) The PTP Enzyme Assay (In Vitro Assay)
(§2) The PTP Enzyme Assay aims at determining the extent of inhibition of the examined PTP (e.g. PTP1B, TC-PTP, PTP-β, DEP-1, LAR, SHP-1, SHP-2, GLEPP-1, PTP-κ, PTP-μ, VHR, hVH5) in the presence of a test compound. The inhibition is illustrated by IC50 values which denote the concentration necessary to achieve an inhibition of 50% of the given PTP.
(§3) The cloning and expression of the catalytic domain of PTPs (e.g. PTP1B, TC-PTP, PTP-β, DEP-1, LAR, SHP-1, SHP-2, GLEPP-1, PTP-κ, PTP-μ, VHR, hVH5) may be performed as described in J. Biol. Chem. 2000, 275(13), pp 9792-9796.
(§4) Assays were performed in a 96 well plate format, using the catalytic core of a human recombinant PTP, as an enzyme and 6,8-DiFluoro-4-MethylUmbelliferyl Phosphate (DiFMUP, Molecular Probes, D-6567) as a substrate at the Km value which was determined for each enzyme. Compounds to be tested were dissolved in 100% DMSO at a concentration of 2 mM. […] The reaction ran for 30 minutes at room temperature before reading the fluorescence intensity on a Perkin-Elmer Victor 2 spectrofluorimeter (excitation at 355 nm, emission at 460 nm, for 0.1 s). The percentage of inhibition relative to the fluorescence observed in the presence of solvent (5% DMSO) alone was determined. The IC50 values for inhibition were determined in triplicates on at least 3 separate occasions.

PTP1B = target: T2, PTP1B (Homo sapiens, UniProt P18031); test: PTP Enzyme Assay (DiFMUP substrate), PTP1B; assay type: biochemical; settings: catalytic core of human recombinant PTP, DiFMUP at Km; read-out: inhibition (IC50) with regard to PTP1B
T2 construct: using the catalytic core of a human recombinant PTP, as an enzyme; made in house
T2 sequence (P18031 3-277 limits assumed): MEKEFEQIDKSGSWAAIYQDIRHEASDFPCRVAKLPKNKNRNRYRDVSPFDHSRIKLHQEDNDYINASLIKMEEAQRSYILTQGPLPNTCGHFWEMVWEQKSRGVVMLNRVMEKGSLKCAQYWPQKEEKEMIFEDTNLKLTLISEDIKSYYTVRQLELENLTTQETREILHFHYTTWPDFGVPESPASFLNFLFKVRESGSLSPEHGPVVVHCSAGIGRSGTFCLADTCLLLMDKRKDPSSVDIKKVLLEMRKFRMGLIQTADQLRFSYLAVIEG
Description: as §1, §2, §3, §4

IC50 (GLEPP-1)	IC50 (PTP1B)	SMILES
~0.13 µM	0.04 µM	O=C1NN(c2ccc(I)cc2)C(=O)C1=Cc1ccc(Br)o1 [Compound 25, 4-(5-Bromo-furan-2-ylmethylene)-1-(4-iodo-phenyl)-pyrazolidine-3,5-dione]
–	0.58 µM	O=C1NN(c2ccc(I)cc2)C(=O)C1=Cc1cc(Br)c(O)c2ncccc12 [Compound 35]
0.047 µM	–	O=C1NN(c2ccc(I)cc2)C(=O)C1=Cc1ccc([N+](=O)[O-])o1 [Compound 45, 1-(4-Iodo-phenyl)-4-(5-nitro-furan-2-ylmethylene)-pyrazolidine-3,5-dione]
